This passage reports inhibition results from ChEMBL document CHEMBL1135948, “A solid-phase approach towards the synthesis of PDE5 inhibitors” (Bioorg Med Chem Lett, 2002).

In the assay the target is cGMP-specific 3',5'-cyclic phosphodiesterase (Homo sapiens) (UniProt O76074). The assay is described as follows: Percentage inhibition against phosphodiesterase 5 (PDE5) was determined using [3H]cGMP scintillation proximity assay at concentration of 1 uM.
`CC(C)Cn1c(=O)n(CN(C(C)C)C(C)C)c(=O)c2[nH]c(Cc3ccc(Br)cc3)nc21` registered an inhibition of 41%.

In the case of `CC(C)Cn1c(=O)n(C)c(=O)c2[nH]c(Cc3ccc(Br)cc3)nc21`, the inhibition was 93%.

`CCCn1c(=O)c2[nH]c(Cc3ccc(Br)cc3)nc2n(CC(C)C)c1=O` gave an inhibition of 57%.

As for `CC(C)Cn1c(=O)n(CO)c(=O)c2[nH]c(Cc3ccc(Br)cc3)nc21`, the inhibition was found to be 88%.

Take `CC(C)Cn1c(=O)n(CCC2CCCCC2)c(=O)c2[nH]c(Cc3ccc(Br)cc3)nc21`: the inhibition came to 42%.

Turning to `CC(C)Cn1c(=O)n(CSc2ccccc2)c(=O)c2[nH]c(Cc3ccc(Br)cc3)nc21`, the inhibition was determined as 15%.

`CC(C)Cn1c(=O)n(COc2ccccc2)c(=O)c2[nH]c(Cc3ccc(Br)cc3)nc21` registered an inhibition of 33%.

For the compound `CC(C)Cn1c(=O)n(Cc2cccc3c2OCO3)c(=O)c2[nH]c(Cc3ccc(Br)cc3)nc21`, the inhibition amounted to 13%.

In the case of `CC(C)Cn1c(=O)[nH]c(=O)c2[nH]c(Cc3ccc(Br)cc3)nc21`, the inhibition amounted to 42%.

Compound `CC(C)Cn1c(=O)n(CC(C)(C)C)c(=O)c2[nH]c(Cc3ccc(Br)cc3)nc21` showed an inhibition of 35%.

For `CC(C)Cn1c(=O)n(-c2ccccn2)c(=O)c2[nH]c(Cc3ccc(Br)cc3)nc21`, the inhibition was found to be 20%.

Compound `CC(C)Cn1c(=O)n(CN)c(=O)c2[nH]c(Cc3ccc(Br)cc3)nc21` registered an inhibition of 38%.

Consider `C#Cn1c(=O)c2[nH]c(Cc3ccc(Br)cc3)nc2n(CC(C)C)c1=O`, for which the inhibition came out at 68%.

`CCOc1ccccc1-n1c(=O)c2[nH]c(Cc3ccc(Br)cc3)nc2n(CC(C)C)c1=O` came in with an inhibition of 38%.

In the case of `CCn1c(=O)c2[nH]c(Cc3ccc(Br)cc3)nc2n(CC(C)C)c1=O`, the inhibition was 93%.

For the compound `CC(C)Cn1c(=O)n(-c2cncn2C)c(=O)c2[nH]c(Cc3ccc(Br)cc3)nc21`, the inhibition was 59%.

In turn, `CC(C)Cn1c(=O)n(-c2ccncc2)c(=O)c2[nH]c(Cc3ccc(Br)cc3)nc21` showed an inhibition of 22%.

In turn, `CC(C)Cn1c(=O)n(C2CCC2)c(=O)c2[nH]c(Cc3ccc(Br)cc3)nc21` displayed an inhibition of 4%.
